Assay results taken from PubChem BioAssay AID1159564 (GlaxoSmithKline (GSK), 2015).
The source made the active and inactive calls. No rule for the calls is given here.

Test system: L. donovani-infected THP-1 macrophages, intracellular amastigote imaging
Test: intracellular L. donovani amastigote inhibition, imaging, THP-1 host macrophages, host toxicity (AID 1159564)
[1] = measured here: THP-1 host cell toxicity
[2] = measured here: amastigotes per macrophage

Structure (SMILES) | IC50 | IC50 [1] [µM] | IC50 [2] [µM]
Cc1ccc2sc(NC(=O)Cn3cnc([N+](=O)[O-])n3)nc2c1 | > 50 µM (inactive) | > 50 | > 50
Cc1cccc(Nc2nc(-c3ccccn3)cs2)n1 | 3.2 µM | > 50 | 2
O=c1[nH]c(C=Cc2cccc(OCCOc3ccccc3)c2)nc(O)c1[N+](=O)[O-] | > 50 µM (inactive) | > 50 | > 50
O=C(O)[C@H]1C[C@@H]1c1ccc(-c2ccc(CN(CCc3ccccn3)C(=O)C3CCC3)cc2)cc1 | > 50 µM (inactive) | > 50 | > 50
CC1=C(C(=O)Nc2ccc(Cl)cc2)C(c2ccncc2)n2ncc(C(=O)Nc3ccccc3)c2N1 (stereo not drawn) | > 50 µM (inactive) | 13 | > 50
O=C(c1cccc(Nc2ncc(-c3ccc4c(c3)OCO4)cn2)c1)N1CCSC1 | 2 µM | 13 | 1
O=C(CN(Cc1ccccn1)Cc1ccccn1)NC1Cc2ccccc2C1 | 5 µM | > 79 | 5
CCN(CC)c1ncc(C(=O)c2ccc([N+](=O)[O-])o2)s1 | 10 µM | 6.3 | 10
Cc1ccc2c(c1)SC(C(=O)Nc1n[nH]c(-c3ccccn3)n1)C2 (stereo not drawn) | 4 µM | 25 | 2.5
CS(=O)(=O)NC1CCC(Nc2ncc(Br)c(Nc3ccccc3C(N)=O)n2)CC1 (stereo not drawn) | 2 µM | 0.5 | 0.79
Clc1ccc(Sc2cnccc2N2CCOCC2)cc1 | > 50 µM (inactive) | > 50 | 10
O=C(CN1CCN(S(=O)(=O)c2cccc([N+](=O)[O-])c2)CC1)Nc1ccc(Oc2ccccc2)cc1 | 7.9 µM | > 50 | 2
NC(=O)c1ncc(N[C@@H]2CCCNC2)nc1Nc1cccc(Cl)c1 | 0.79 µM | 2 | 0.5
CCCCc1cc(Nc2cc(C3CCC3)[nH]n2)nc(N2CCC2C(N)=O)n1 (stereo not drawn) | 2 µM | 1 | 0.63
Cc1[nH]n2c(=O)c3c(nc2c1-c1ccc(Br)cc1)CCCC3 | > 50 µM (inactive) | > 50 | 40
Cc1cccnc1CN1CCN(CCCOc2ccc(-c3ccc(C(N)=O)cc3)cc2)CC1 | 32 µM | 13 | 10
C[C@@H](Oc1cc(-n2cnc3ccc(O[C@H]4CCNC4)cc32)sc1C(N)=O)c1ccccc1Cl | 7.9 µM | 6.3 | 5
COc1ccc(CN2C(=O)C(O)(CC(=O)c3ccncc3)c3cc(Br)ccc32)cc1OC (stereo not drawn) | 25 µM | 40 | 20
N#CN1CC[C@@H](NC(=O)Nc2ccccc2Oc2ccccc2)C1 | 5 µM | 25 | 4
Cn1nc(C(=O)N2CCc3ccccc32)c2c1CCS(=O)(=O)C2 | 4 µM | > 50 | 1.6
Cc1ccc(C)c(OC2CCN(C(=O)C(C)n3ccnc3)CC2)c1 (stereo not drawn) | > 50 µM (inactive) | > 50 | 0.32
Cc1cc(C)cc(NS(=O)(=O)c2cc(-c3cc(C)[nH]n3)ccc2C)c1 | 7.9 µM |  | 3.2
O=C(Nc1ccccc1)Nc1nc(-c2ccccn2)cs1 | 0.4 µM | 6.3 | 0.25

Structure (SMILES) | IC50 | IC50 [1] [µM] | IC50 [2] [µM]
CCCCCNC(=O)c1c[nH]c2ccc(S(=O)(=O)N(C)c3ccc(OCC)cc3)cc2c1=O | > 50 µM (inactive) | > 50 | > 50
COc1ccc2c(Cl)c(C(=O)N3CCC3)sc2c1Cl | > 50 µM (inactive) | > 50 | > 50
Cc1ccccc1CNC(=O)CN(Cc1ccccn1)Cc1ccccn1 | 6.3 µM | > 79 | 4
O=C(NC1C(=O)N(c2ccccc2)C1c1cccnc1)c1ccc(Cl)s1 (stereo not drawn) | > 50 µM (inactive) | > 50 | 0.79
CCN(CC)S(=O)(=O)c1ccc(C)c(NC(=O)c2cc(Cl)c3c(c2)OCO3)c1 | > 50 µM (inactive) | > 50 | > 50
COc1ccc(Cl)cc1CC(=O)Nc1n[nH]c(-c2ccccn2)n1 | 6.3 µM | > 50 | 5
Cc1cccc(NS(=O)(=O)c2cnc3sc(C)cn3c2=O)c1 | > 50 µM (inactive) | > 50 | 5
CN(C)c1ncc(-c2cncn2CCOc2ccc(Cl)cc2)cn1 | > 50 µM (inactive) | > 50 | > 50
Cc1c(C(C)NC(=O)Nc2cccc(Cl)c2)sc2ncnn12 (stereo not drawn) | > 50 µM (inactive) | > 50 | 2
O=C1CCCCCC1(Cc1cnc[nH]1)c1ccc(Cl)cc1Cl (stereo not drawn) | > 50 µM (inactive) | > 50 | 6.3
CS(=O)(=O)c1ccc(CC(=O)Nc2nc(-c3ccc(Cl)s3)cs2)cc1 | > 50 µM (inactive) | 16 | > 50
C=CCN(Cc1cccs1)C(=O)CSc1nnc(-c2ccc3c(c2)OCO3)o1 | 3.2 µM | > 50 | 1.3
O=C(Nc1nc(-c2ccccn2)cs1)c1ccc(S(=O)(=O)N2CCCCC2)cc1 | 1.3 µM | 13 | 1
O=C(Nc1cccc(Cl)c1)Nc1ccc([N+](=O)[O-])cc1Cl | 3.2 µM | 25 | 2
CC(C)c1cc(C(=O)N2CCCC(c3cc4ncccc4[nH]3)C2)on1 (stereo not drawn) | > 50 µM (inactive) | > 50 | > 50
COc1ccc(-c2nc3ccncc3c(=O)n2CCOc2ccccc2)cc1 | > 50 µM (inactive) | > 50 | > 50
Cc1ccc2c(c1)-c1onc(C(=O)N3CCCCC3c3cccnc3)c1CO2 (stereo not drawn) | > 50 µM (inactive) | 40 | 40
CS(=O)(=O)N1CCC(Nc2ncc(Br)c(Nc3cccc(F)c3C(N)=O)n2)CC1 | 1.6 µM | 1 | 0.79
Cc1[nH]n2c(=O)c3c(nc2c1-c1ccc(Cl)cc1)CCCC3 | > 50 µM (inactive) | 13 | > 50
Cc1nn(C)c(Cl)c1CN(Cc1cccnc1)Cc1ccsc1 | > 50 µM (inactive) | > 50 | 3.2
COc1ccc(C(=O)Nc2cc(C(F)(F)F)ccc2N2CCOCC2)c(OC)c1 | 10 µM | 13 | 7.9
COc1cc2c(cc1OC)[C@H]1[C@@H](C)c3ccc(OC)c(OC)c3CN1CC2 | 20 µM | > 50 | 16
CCN(Cc1cccs1)C(=O)CSc1nnc(-c2ccc3c(c2)OCO3)o1 | 2 µM | > 50 | 2

Structure (SMILES) | IC50 | IC50 [1] [µM] | IC50 [2] [µM]
CN(C)CCN(C)Cc1ccc(F)cc1NS(=O)(=O)c1ccc(Cl)c(Cl)c1 | 7.9 µM | 32 | 2.5
COc1ccc(-c2cnc(NC(=O)c3cc(-c4ccccn4)n[nH]3)n2C)cc1 | 1 µM | > 50 | 0.79
N#Cc1cccc(CN2CCC(c3nc(-c4ccc(C(F)(F)F)nc4)no3)CC2)c1 | > 50 µM (inactive) | > 50 | > 50
O=C(c1cc2cc(Cl)ccc2[nH]1)N1CCCCC1c1cccnc1 (stereo not drawn) | 32 µM | 16 | 10
O=c1cc(NCCCNCc2cc(C(F)(F)F)cs2)[nH]c2ccccc12 | 40 µM | 20 | 25
COc1ccc(Nc2nccc(N(C)c3n[nH]c4c(F)cccc34)n2)cc1S(C)(=O)=O | 2.5 µM | 10 | 1
Cc1cc(Nc2ccc(C#N)c(Cl)c2C)n[nH]1 | > 50 µM (inactive) | 20 | > 50
O=C1CSC(c2cccnc2)N1c1ccc(Cl)cc1Cl (stereo not drawn) | > 50 µM (inactive) | > 50 | > 50
O=C(CCCn1cnc([N+](=O)[O-])n1)Nc1cccc(Cl)c1 | > 50 µM (inactive) | > 50 | > 50
CC(=O)Nc1ccc(-c2csc(NC(=O)c3ccc([N+](=O)[O-])s3)n2)cc1 | 1 µM | 13 | 0.79
CN(Cc1nc2c(C(=O)N3CCN(Cc4ccccc4)CC3)cccc2[nH]1)C1CCCc2cccnc21 (stereo not drawn) | 1.3 µM | 10 | 0.79
CCC(=O)Nc1ccccc1C(=O)Nc1ccccn1 | > 50 µM (inactive) | > 50 | > 50
CN(C)Cc1cccc(Nc2nccc(-c3ccc(NCCN)c(C#N)c3)n2)c1 | 1.3 µM | 6.3 | 0.5
O=C(NCCNc1noc(-c2ccc([N+](=O)[O-])cc2)n1)c1ccc(Cl)cc1 | > 50 µM (inactive) | 16 | > 50
O=C(N[C@H](CO)c1ccccc1)c1ccc(-c2c[nH]c3nccc(C(F)(F)F)c23)s1 | 25 µM | 13 | 16
CN1CCC(N(C)c2nccc(N3CCN(C(=O)c4cccc(-c5cccnc5)c4)CC3)n2)CC1 | 1.3 µM | 7.9 | 1.3
CN(Cc1nc2ccccc2s1)C(=O)C=Cc1cc2ccccc2o1 | > 50 µM (inactive) | > 50 | 16
O=S(=O)(NCC(c1cccnc1)N1CCN(c2ccccc2F)CC1)c1ccc(F)cc1 (stereo not drawn) | > 50 µM (inactive) | > 50 | 4
O=C(C1CCCCC1)N1CCN(c2nnc(-c3ccccc3)c3ccccc23)CC1 | > 50 µM (inactive) | 50 | 20
O=C(CN1CCC2(O)CCCCC2C1c1ccc2c(c1)OCO2)Nc1ccc(Cl)cc1Cl (stereo not drawn) | 3.2 µM | > 50 | 1.3
Cc1ccccc1CNc1cc(C2CC2)nc(-c2nccn2C)n1 | 0.63 µM | 10 | 0.63
COc1cccc(NS(=O)(=O)c2ccc3[nH]cc(C(=O)NCCC(C)C)c(=O)c3c2)c1 | > 50 µM (inactive) | > 50 | > 50
